Source: patent US20030125319A1, “Methods for assessing, improving, or maintaining urogenital health in postmenopausal women” (priority 2000, published 2003)

Test system: postmenopausal women
Assay: Self-assessment questionnaire (subjective vaginal health questionnaire) in postmenopausal women taking the estrogen agonist/antagonist
Assay type: in vivo, human
Conditions: self-reported by postmenopausal women taking the compound
Experimental: The subject self-assessment of vaginal health is performed with a subjective vaginal health questionnaire. Typically, the questionnaire is performed in private and the results kept confidential. The questionnaire may include an envelope that is specially encoded to later identify the treatment that the subject is undergoing. An additional question may be added in subsequent questionnaires following administration of the baseline questionnaire, which question would ask: “Have you had any positive or negative vaginal changes since you have been taking the study medication?” This question may be coupled to a multiple-point ratings scale ranging from “mostly positive changes,” to “moderately positive changes,” to “mildly positive changes,” to “no changes,” to “mildly negative changes,” to “moderately negative changes,” to “mostly negative changes.”

O=C(O)C(O)C(O)C(=O)O.Oc1ccc2c(c1)CC[C@H](c1ccccc1)[C@@H]2c1ccc(OCCN2CCCC2)cc1 [(−)-cis-6-phenyl-5-[4-(2-pyrrolidin-1-yl-ethoxy)-phenyl]-5,6,7,8-tetrahydro-naphthalene-2-ol, D-tartrate salt]
frequency of sexual intercourse: increased frequency
intensity of orgasms: increased intensity
number of orgasms: increased number
